Data from US4868204A, “Mycalamide compounds, compositions thereof and methods of preparation and use” (Harbor Branch Oceanographic Institution, Inc., priority 1988, dated 1989).
Like-named read-outs stand apart in the source and are kept apart here.

Assays:
P388 mouse leukemia cell = assay: in vitro P388 mouse leukemia cell assay; assay type: cell-based; settings: 50% inhibition of cell replication vs untreated cultures
Procedure: Antitumor effectiveness of the compounds of the invention was evaluated using a standardized in vitro P388 mouse leukemia cell assay protocol disclosed in U.S. Pat. No. 4,731,366 with the antitumor activity being expressed in IC50 (concentration that results in 50% inhibition of cell replication normalized to untreated cultures) determined with a log-log transform of data and expressed as xx ng/ml. As an example, for mycalamide A the P388 assay value was […]

HSV = assay type: cell-based, Herpes simplex type 1 virus
[1] = test system: polio vaccine virus Type I (PVI); assay type: cell-based
antimitotic activity = settings: British Pat. Nos. 1,078,049 and 932,875; cited from earlier work
P338 tumor = assay: in vivo P388 tumor procedure in mice (% T/C)
Procedure: (§1) Antitumor effectiveness of mycalamide A was also evaluated using a standardized in vivo procedure by injecting mice with the test material starting 24 hours after P338 tumor implantation. A T/C value is calculated using the formula % T/C=Median survival of test group/Median survival of control group×100%, A T/C value above 130% is considered significant.

B16 murine melanoma = assay: in vivo B16 murine melanoma assay
Procedure: as §1
In vivo antitumor activity of mycalamide A was also tested with an B16 murine melanoma assay resulting in the following data: […]

A59 = test system: A59; set-up: species or system mice; settings: mouse, in vivo, 0.1 mg/kg
mice = settings: mouse, in vivo

## COC1C2OCOC(NC(=O)C(O)C3(O)CC(C)C(C)C(C)O3)C2OC(CC(O)CO)C1(C)C (stereo not drawn) [Example 20, 4α-dihydro pseudomycalamide A]
P388 mouse leukemia cell
  P388 IC50: 10.5 ng/mL
HSV
  AV assay, HSV: 4+

## C=C1CC(OC)(C(O)C(=O)NC2OCOC3C2OC(CC(O)CO[Si](C)(C)C(C)(C)C)C(C)(C)C3OC)OC(C)C1C (stereo not drawn) [Example 16, Mycalamide A 18-mono-t-butyl,dimethylsilylether]
P388 mouse leukemia cell
  P388 IC50: 28.5 ng/mL
HSV
  AV assay, HSV: 4+ and -
[1]
  AV assay, PVI: 4+ and -
BSC cells
  AV assay, cytotoxicity: -

## COC1C2OCOC(NC(=O)C(O)C3(OC)CC4(CO4)C(C)C(C)O3)C2OC(CC(O)CO)C1(C)C (stereo not drawn) [Example 3, Mycalamide A 4 γ-epoxide]
P388 mouse leukemia cell
  P388 IC50: 34 ng/mL

## COC1C2OCOC(NC(=O)C(OC(=O)c3ccc(Br)cc3)=C3C=C(C)C(C)C(C)O3)C2OC(CC(O)COC(=O)c2ccc(Br)cc2)C1(C)C (single isomer, unassigned) [Example 13, Neomycalamide A 7,18-di-p-bromobenzoate]
P388 mouse leukemia cell
  P388 IC50: 572.5 ng/mL
HSV
  AV assay, HSV: 4+ and -
[1]
  AV assay, PVI: 4+ and -
BSC cells
  AV assay, cytotoxicity: -

## C=C1CC(OC)(C(OC(C)=O)C(=O)NC2OCOC3C2OC(CC(COC(C)=O)OC(C)=O)C(C)(C)C3OC)OC(C)C1C (stereo not drawn) [Example 7, Mycalamide A Triacetate]
P388 mouse leukemia cell
  P388 IC50: 51.9 ng/mL
BSC cells
  AV assay, cytotoxicity: -

## C=C1CC(O)(C(O)C(=O)NC2OCOC3C2OC(CC(O)CO)C(C)(C)C3OC)OC(C)C1C (stereo not drawn) [Example 28, Pseudomycalamide A]
P388 mouse leukemia cell
  P388 IC50: 23 ng/mL
HSV
  AV assay, HSV: 4+
[1]
  AV assay, PVI: 4+

## COC1C2OCOC(NC(=O)C(O)C3(OC)CC4(CO4)C(C)C(C)O3)C2OC(CC(O)CO)C1(C)C (stereo not drawn) [Example 4, Mycalamide A 4β-epoxide]
P388 mouse leukemia cell
  P388 IC50: 14.9 ng/mL
HSV
  AV assay, HSV: 4+

## COC1C2OCOC(NC(=O)C(O)C3(O)CC(C)C(C)C(C)O3)C2OC(CC(O)CO)C1(C)C (stereo not drawn) [Example 23, 4β-dihydro pseudomycalamide A]
P388 mouse leukemia cell
  P388 IC50: 4.2 ng/mL
HSV
  AV assay, HSV: 4+
[1]
  AV assay, PVI: 4+

## COC1C2OCOC(NC(=O)C(O)C3(OC)CC(C)C(C)C(C)O3)C2OC(CC(O)CO)C1(C)C (stereo not drawn) [Example 19, 4α-Dihydro mycalamide A]
P388 mouse leukemia cell
  P388 IC50: 2.3 ng/mL
HSV
  AV assay, HSV: 4+ and -

## C=C1C[C@](OC)([C@H](O)C(=O)N[C@@H](OC)[C@@H]2C[C@@H](O)C(C)(C)[C@@H](C[C@@H](COC)OC)O2)O[C@H](C)[C@@H]1C [Pederin, pederin]
Antimitotic activity
  antimitotic activity: shows antimitotic activity

## C=C1CC(OC)(C(OC(=O)c2ccc(Br)cc2)C(=O)NC2OCOC3C2OC(CC(O)COC(=O)c2ccc(Br)cc2)C(C)(C)C3OC)OC(C)C1C (stereo not drawn) [Example 12, Mycalamide A 7,18-di-p-bromobenzoate]
P388 mouse leukemia cell
  P388 IC50: 141.2 ng/mL
[1]
  AV assay, PVI: 4+

## COC(CO)CC1OC2C(NC(=O)C(O)C3(O)CC(C)C(C)C(C)O3)OCOC2C(OC)C1(C)C (stereo not drawn) [Example 26, 4α Dihydro pseudomycalamide B]
P388 mouse leukemia cell
  P388 IC50: 3 ng/mL
HSV
  AV assay, HSV: 4+ and -
[1]
  AV assay, PVI: 4+ and -
BSC cells
  AV assay, cytotoxicity: -

## C=C1CC(OC)(C(OC(C)=O)C(=O)NC2OCOC3C2OC(CC(COC(C)=O)OC)C(C)(C)C3OC)OC(C)C1C (stereo not drawn) [Example 9, Mycalamide B Diacetate]
P388 mouse leukemia cell
  P388 IC50: 15.3 ng/mL
HSV
  AV assay, HSV: 4+ and -
[1]
  AV assay, PVI: 4+ and -
BSC cells
  AV assay, cytotoxicity: -

## C=C1CC(OC)(C(OC(=O)c2ccc(Br)cc2)C(=O)NC2OCOC3C2OC(CC(O)CO)C(C)(C)C3OC)OC(C)C1C (stereo not drawn) [Example 10, Mycalamide A 7-mono-p-bromobenzoate]
P388 mouse leukemia cell
  P388 IC50: 23.3 ng/mL
HSV
  AV assay, HSV: 4+
[1]
  AV assay, PVI: 4+

## C=C1CC(OC)(C(OC(=O)CC)C(=O)NC2OCOC3C2OC(CC(COC(=O)CC)OC(=O)CC)C(C)(C)C3OC)OC(C)C1C (stereo not drawn) [Example 8, Mycalamide A Tripropanoate]
P388 mouse leukemia cell
  P388 IC50: 85.6 ng/mL
[1]
  AV assay, PVI: 4+ and -
BSC cells
  AV assay, cytotoxicity: -

## C=C1C[C@](OC)([C@H](O)C(=O)N[C@H]2OCO[C@H]3[C@@H]2O[C@H](C[C@@H](CO)OC)C(C)(C)[C@@H]3OC)O[C@H](C)[C@@H]1C [Example 2, Mycalamide B]
P388 mouse leukemia cell
  P388 IC50: 0.26 ng/mL
HSV
  AV assay, HSV: 4+ and -
[1]
  AV assay, PVI: 4+ and -
BSC cells
  AV assay, cytotoxicity: -

## COC(CO)CC1OC2C(NC(=O)C(O)C3(OC)CC(C)C(C)C(C)O3)OCOC2C(OC)C1(C)C (stereo not drawn) [Example 24, 4β-Dihydro mycalamide B]
P388 mouse leukemia cell
  P388 IC50: 0.14 ng/mL
[1]
  AV assay, PVI: 4+

## C=C1C[C@](OC)([C@H](O)C(=O)N[C@H]2OCO[C@H]3[C@@H]2O[C@H](C[C@H](O)CO)C(C)(C)[C@@H]3OC)O[C@H](C)[C@@H]1C [mycalamide A, Mycalamide A]
P388 mouse leukemia cell
  P388 IC50: 1.6 ng/mL
P338 tumor; 0.0012 mg/kg, 2nd series
  Median T/C %: 117%
P338 tumor; 0.0025 mg/kg, 1st series
  Median T/C %: 137%
P338 tumor; 0.0025 mg/kg, 2nd series
  Median T/C %: 122%
P338 tumor; 0.005 mg/kg, 1st series
  Median T/C %: 132%
P338 tumor; 0.005 mg/kg, 2nd series
  Median T/C %: 133%
P338 tumor; 0.01 mg/kg, 1st series
  Median T/C %: 116%
P338 tumor; 0.01 mg/kg, 2nd series
  Median T/C %: 156%
P338 tumor; 0.02 mg/kg, 1st series
  Median T/C %: Toxic
P338 tumor; 0.02 mg/kg, 2nd series
  Median T/C %: 106%
B16 murine melanoma; 0.0625 mg/kg
  Cures: 0
  Median T/C %: 197%
B16 murine melanoma; 0.125 mg/kg
  Cures: 0
  Median T/C %: 189%
B16 murine melanoma; 0.5 mg/kg
  Cures: 0
  Median T/C %: Toxic
A59
  Cumulative mortality: 0%
mice; 0.01 mg/kg, 48 h
  Cumulative mortality: 0%
mice; 0.01 mg/kg, 96 h
  Cumulative mortality: 0%
mice; 0.01 mg/kg, 144 h
  Cumulative mortality: 0%
mice; 0.01 mg/kg, 192 h
  Cumulative mortality: 0%
mice; 0.01 mg/kg, 240 h
  Cumulative mortality: 0%
mice; 0.01 mg/kg, 288 h
  Cumulative mortality: 0%
mice; 0.01 mg/kg, 336 h
  Cumulative mortality: 0%
mice; 0.1 mg/kg, 48 h
  Cumulative mortality: 0%
mice; 0.1 mg/kg, 96 h
  Cumulative mortality: 0%
mice; 0.1 mg/kg, 144 h
  Cumulative mortality: 0%
mice; 0.1 mg/kg, 192 h
  Cumulative mortality: 0%
mice; 0.1 mg/kg, 240 h
  Cumulative mortality: 0%
mice; 0.1 mg/kg, 288 h
  Cumulative mortality: 0%
mice; 0.1 mg/kg, 336 h
  Cumulative mortality: 0%
mice; 1 mg/kg, 48 h
  Cumulative mortality: 0%
mice; 1 mg/kg, 96 h
  Cumulative mortality: 0%
mice; 1 mg/kg, 144 h
  Cumulative mortality: 100%
mice; 1 mg/kg, 192 h
  Cumulative mortality: 100%
mice; 1 mg/kg, 240 h
  Cumulative mortality: 100%
mice; 1 mg/kg, 288 h
  Cumulative mortality: 100%
mice; 1 mg/kg, 336 h
  Cumulative mortality: 100%

## C=C1CC(OC)(C(O)C(=O)NC2OCOC3C2OC(CC(O)COC(=O)c2ccc(Br)cc2)C(C)(C)C3OC)OC(C)C1C (stereo not drawn) [Example 11, Mycalamide A 18-mono-p-bromobenzoate]
P388 mouse leukemia cell
  P388 IC50: 1.28 ng/mL
[1]
  AV assay, PVI: 4+ and -
BSC cells
  AV assay, cytotoxicity: -

## C=C1CC(OC)(C(O[Si](C)(C)C)C(=O)NC2OCOC3C2OC(CC(CO[Si](C)(C)C)O[Si](C)(C)C)C(C)(C)C3OC)OC(C)C1C (stereo not drawn) [Example 15, Mycalamide A tris-trimethylsilylether]
P388 mouse leukemia cell
  P388 IC50: 1.3 ng/mL
HSV
  AV assay, HSV: 4+ and -
[1]
  AV assay, PVI: 4+ and -
BSC cells
  AV assay, cytotoxicity: -

## COC1C2OCOC(NC(=O)C(O)C3(OC)CC(C)C(C)C(C)O3)C2OC(CC(O)CO)C1(C)C (stereo not drawn) [Example 22, 4β-dihydro mycalamide A]
P388 mouse leukemia cell
  P388 IC50: 0.8 ng·mL
BSC cells
  AV assay, cytotoxicity: -

## C=C1CC(OC)(C(O)C(=O)NC2OCOC3C2OC(CC(CO[Si](C)(C)C)OC)C(C)(C)C3OC)OC(C)C1C (stereo not drawn) [Example 17, Mycalamide B 18-mono-trimethylsilylether]
P388 mouse leukemia cell
  P388 IC50: 0.08 ng/mL
HSV
  AV assay, HSV: 4+ and -
[1]
  AV assay, PVI: 4+ and -
BSC cells
  AV assay, cytotoxicity: -

## C=C1CC(O)(C(O)C(=O)NC2OCOC3C2OC(CC(CO)OC)C(C)(C)C3OC)OC(C)C1C (stereo not drawn) [Example 27, Pseudomycalamide B]
P388 mouse leukemia cell
  P388 IC50: 1.8 ng/mL
HSV
  AV assay, HSV: 4+ and -
[1]
  AV assay, PVI: 4+ and -
BSC cells
  AV assay, cytotoxicity: -

## C=C1CC(OC)(C(O[Si](C)(C)C)C(=O)NC2OCOC3C2OC(CC(CO[Si](C)(C)C)OC)C(C)(C)C3OC)OC(C)C1C (stereo not drawn) [Example 18, Mycalamide B bis-trimethylsilylether]
P388 mouse leukemia cell
  P388 IC50: 0.19 ng/mL

## C=C1CC(OC)(C(O)C(=O)NC2OCOC3C2OC(CC(CO[Si](C)(C)C)O[Si](C)(C)C)C(C)(C)C3OC)OC(C)C1C (stereo not drawn) [Example 14, Mycalamide A 17,18-bis-trimethylsilylether]
P388 mouse leukemia cell
  P388 IC50: 1.2 ng/mL
HSV
  AV assay, HSV: 4+
[1]
  AV assay, PVI: 4+
